# Laboratory results taken from patent publication US8501732B2, “Aminomethyl quinolone compounds” (Hoffmann-La Roche Inc., priority 2011, dated 2013).
# How the values were obtained:
# JNK1 = JNK1 (Homo sapiens (Human), UniProt P45983); test: In Vitro JNK1 Assay (TR-FRET, phosphorylation of GST-c-Jun); assay type: biochemical; conditions: 0.2 nM active JNK1 kinase, 26.7 nM GST-c-Jun, 2 μM ATP, 30 min at room temperature
# Summary of the method: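 IC50 derived from percent inhibition across 10 serially diluted concentrations, with TR-FRET detection of phospho-c-Jun via an anti-phospho-c-Jun antibody after EDTA stop. Substrate was GST-c-Jun 1-79, reacted 30 min at room temperature in pH 7.0 HEPES buffer with MgCl2, DTT, vanadate and BSA.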
# [1] = tested on: phospho(Ser63)-c-jun in HK-2 cells; test: Cell-Based Assay for JNK Inhibitors (in-cell ELISA, phospho(Ser63)-c-jun after TNFα); conditions: HK-2 cells (human proximal tubule cells), 60 minutes compound, then 10 ng/mL TNFα for 30 minutes
# Protocol: Cell-Based Assay for JNK Inhibitors
# The cell-based assay employed the in-cell ELISA method to determine the ability of compounds to prevent the generation of phospho(Ser63)-c-jun in HK-2 cells (human proximal tubule cells) in response to stimulation with tumor necrosis factor α (TNFα). In brief, for quantification of phospho(Ser63)-c-jun, the cells (in 96-well format) were fixed and permeablized then incubated sequentially with a rabbit anti-phospho-c-jun First Antibody specific for the presence of the phospho-Ser63 epitope and a donkey anti-rabbit IgG Second Antibody linked to horseradish peroxidase (HRP) for colorimetric quantitation of binding. […] Blank wells received no TNFα stimulation or compound. Additional Control wells received TNFα stimulation, but no compound.
# Stock cultures of HK-2 cells (ATCC, Manassas, Va.) were grown under a 5% CO2/[…] atmosphere at 37 degrees C. in Keratinocyte-SFM medium (KSFM, Invitrogen, Grand Island, N.Y.) containing 5 μg/L epidermal growth factor and 5 mg/L bovine pituitary extract (both supplied with the medium), additionally supplemented with 10% (v/v) fetal calf serum (FCS; Invitrogen, Grand Island, N.Y.) and 1% (v/v) antibiotic-antimycotic (ABAM: Sigma, St. Louis, Mo.). For assays, cells were seeded in collagen coated 96-well polystyrene plates (BD Biosciences, Franklin Lakes, N.J.) at a density of 40,000 cells/well and cultured for 24 h in the same medium (100 μL/well) followed by a further 16-24 h in 100 μL of similar medium, but without FCS. […] Plates were then allowed to stand at room temperature for 20 minutes before being washed with 200 μL/well of PBS. (Further steps were performed immediately or the plates were stored at 4 degrees C. and the assay completed the next day.) To each well was added 100 μL 1% (v/v) TritonX-100 (Sigma, St. Louis, Mo.) in PBS followed by 20 minutes standing at room temperature, washing with 200 μL/well PBS, the addition of 100 μL/well of Quenching buffer (1% (v/v) hydrogen peroxide (Sigma, St. Louis, Mo.) and 0.1% (w/v) sodium azide (Fisher Scientific, Fair Lawn, N.J.)) in PBS and a further 20 minutes at room temperature. Plates were then washed twice with 200 μL/well of 0.1% (v/v) Tween-20 (Teknova, Hollister, Calif.) in PBS before addition of 200 μL/well of 2% BSA/0.1% Tween-20 in PBS and a further 1 hour at room temperature. […] After a further one hour, rabbit anti-phospho-c-jun-Ser63 is added directly to the solution in the Blank wells resulting in 1:250 dilution of this antibody. Plates were then placed on a slowly rotating platform at 4 degrees C. overnight. Wells were then washed thrice with 200 μL/well PBS/0.1% Tween-20. After addition of the third wash, the plates were placed on a slowly rotating platform for 15 minutes at room temperature. The final PBS/Tween20 wash was then replaced with 100 μL/well of donkey anti-rabbit HRP-labeled Second Antibody (Jackson ImmunoResearch Laboratory, West Grove, Pa.) diluted 1:10,000 in Antibody Dilution Buffer and the plates placed on a slowly rotating platform for 1 hour at room temperature. Wells were then washed four times with 200 μL/well PBS/0.1% Tween-20, including slow rotation for 30 minutes for the third wash and 10 minutes for the final wash. The wells were then washed once with 200 μL PBS without Tween-20. […] Absorbance was determined at a 450 nm wavelength using a spectrophotometer (Molecular Devices SpectraMax 250).
# Chain of JNK1 (P45983 whole entry): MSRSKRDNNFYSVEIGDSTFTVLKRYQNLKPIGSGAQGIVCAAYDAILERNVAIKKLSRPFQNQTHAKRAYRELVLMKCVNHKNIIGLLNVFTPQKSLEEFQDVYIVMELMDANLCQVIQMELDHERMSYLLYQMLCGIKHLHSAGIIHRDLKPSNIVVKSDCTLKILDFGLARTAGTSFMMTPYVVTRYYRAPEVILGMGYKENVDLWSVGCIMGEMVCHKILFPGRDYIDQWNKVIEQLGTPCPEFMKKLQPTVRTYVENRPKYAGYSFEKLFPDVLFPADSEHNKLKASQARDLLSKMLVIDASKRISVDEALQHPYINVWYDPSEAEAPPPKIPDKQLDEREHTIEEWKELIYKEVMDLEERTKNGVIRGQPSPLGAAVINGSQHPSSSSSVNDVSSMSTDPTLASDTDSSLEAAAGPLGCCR
IC50 (JNK1),EC50 [1],SMILES
0.072 µM,16 µM,"COc1cccc(Cn2ccc(C(=O)NCc3cn(-c4ccccc4)c4cc(Cl)ccc4c3=O)cc2=O)c1 [Example I-38, 1-(3-Methoxy-benzyl)-2-oxo-1,2-dihydro-pyridine-4-carboxylic acid (7-chloro-4-oxo-1-phenyl-1,4-dihydro-quinolin-3-ylmethyl)-amide]"
0.076 µM,10 µM,"O=C(NCc1cn(-c2ccccc2)c2cc(Cl)ccc2c1=O)c1ccn(Cc2ccccc2Cl)c(=O)c1 [Example I-39, 1-(2-Chloro-benzyl)-2-oxo-1,2-dihydro-pyridine-4-carboxylic acid (7-chloro-4-oxo-1-phenyl-1,4-dihydro-quinolin-3-ylmethyl)-amide]"
0.084 µM,100 µM,"O=C(NCc1cn(-c2ccccc2)c2cc(Cl)ccc2c1=O)c1ccc(N2CCOCC2)nc1 [Example I-40, N-(7-Chloro-4-oxo-1-phenyl-1,4-dihydro-quinolin-3-ylmethyl)-6-morpholin-4-yl-nicotinamide]"
0.088 µM,28 µM,"CN(C)c1cc(C(=O)NCc2cn(-c3ccccc3)c3cc(Cl)ccc3c2=O)ccn1 [Example I-41, N-(7-Chloro-4-oxo-1-phenyl-1,4-dihydro-quinolin-3-ylmethyl)-2-dimethyl amino-isonicotinamide]"
0.089 µM,25 µM,"O=C(NCc1cn(-c2ccccc2)c2cc(Cl)ccc2c1=O)c1ccc2scnc2c1 [Example I-42, Benzothiazole-5-carboxylic acid (7-chloro-4-oxo-1-phenyl-1,4-dihydro-quinolin-3-ylmethyl)-amide]"
0.1 µM,100 µM,"O=C(NCc1cn(-c2ccccc2)c2cc(Cl)ccc2c1=O)c1ccc(-c2ncn[nH]2)cc1 [Example I-43, N-(7-Chloro-4-oxo-1-phenyl-1,4-dihydro-quinolin-3-ylmethyl)-4-(2H-[1,2,4]triazol-3-yl)-benzamide]"
0.08 µM,26 µM,"COc1ccc(C(=O)NCc2cn(-c3ccccc3)c3cc(Cl)ccc3c2=O)cc1OC [Example I-57, N-(7-Chloro-4-oxo-1-phenyl-1,4-dihydro-quinolin-3-ylmethyl)-3,4-dimethoxy-benzamide]"
0.011 µM,13 µM,"CC(C)(C)OC(=O)N1CC2CC1CN2c1ccc(C(=O)NCc2cn(-c3ccccc3)c3cc(Cl)ccc3c2=O)cn1 (stereo not drawn) [Example I-62, 5-{5-[(7-Chloro-4-oxo-1-phenyl-1,4-dihydro-quinolin-3-ylmethyl)-carbamoyl]-pyridin-2-yl}-2,5-diaza-bicyclo[2.2.1]heptane-2-carboxylic acid tert-butyl ester]"
0.017 µM,3.8 µM,"O=C(NCc1cn(-c2ccccc2)c2cc(Cl)ccc2c1=O)c1ccc(N2CCC(CCO)CC2)nc1 [Example I-63, 4-(2-Hydroxy-ethyl)-3,4,5,6-tetrahydro-2H-[1,2′]bipyridinyl-5′-carboxylic acid (7-chloro-4-oxo-1-phenyl-1,4-dihydro-quinolin-3-ylmethyl)-amide]"
0.018 µM,100 µM,"O=C(NCc1cn(-c2ccccc2)c2cc(Cl)ccc2c1=O)c1ccc(N(CCO)CCO)nc1 [Example I-64, 6-[Bis-(2-hydroxy-ethyl)-amino]-N-(7-chloro-4-oxo-1-phenyl-1,4-dihydro-quinolin-3-ylmethyl)-nicotinamide]"
0.019 µM,40 µM,"O=C(NCc1cn(-c2ccccc2)c2cc(Cl)ccc2c1=O)c1ccc(N2CCCCC2)nc1 [Example I-65, 3,4,5,6-Tetrahydro-2H-[1,2′]bipyridinyl-5′-carboxylic acid (7-chloro-4-oxo-1-phenyl-1,4-dihydro-quinolin-3-ylmethyl)-amide]"
0.019 µM,29 µM,"CN(CCO)c1ccc(C(=O)NCc2cn(-c3ccccc3)c3cc(Cl)ccc3c2=O)cn1 [Example I-66, N-(7-Chloro-4-oxo-1-phenyl-1,4-dihydro-quinolin-3-ylmethyl)-6-[(2-hydroxy-ethyl)-methyl-amino]-nicotinamide]"
